Data taken from PubChem BioAssay AID330 (DTP/NCI, 2004).
Several values for one entry are separate records, joined by “and”; a condition that tells them apart may be missing. Equal entries are not always repeated. Inconclusive results and toxic doses are left out.

Tested on: P388 leukemia ip, CD2F1 mice, survival T/C
Assay: NCI In Vivo Anticancer Drug Screen. Data for tumor model P388 Leukemia (intraperitoneal) in CD2F1 (CDF1) mice
Settings: endpoint: median survival time, higher = longer survival
Outline: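 Mice carrying the transplanted tumor received test compound or vehicle. Survival was recorded in each group, and the value is the treated-group measurement divided by that of the vehicle-treated control group.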

[1] = dose: 50.0 mg/kg/injection, schedule: Q01DX005 (ip), vehicle: saline with Tween-80
[2] = dose: 100.0 mg/kg/injection, schedule: Q01DX005 (ip), vehicle: saline with Tween-80
[3] = dose: 200.0 mg/kg/injection, schedule: Q01DX005 (ip), vehicle: saline with Tween-80
[4] = dose: 50.0 mg/kg/injection, schedule: Q01DX005 (ip), vehicle: saline
[5] = dose: 100.0 mg/kg/injection, schedule: Q01DX005 (ip), vehicle: saline
[6] = dose: 200.0 mg/kg/injection, schedule: Q01DX005 (ip), vehicle: saline
[7] = dose: 50.0 mg/kg/injection, schedule: Q01DX009 (ip), vehicle: saline with Tween-80
[8] = dose: 100.0 mg/kg/injection, schedule: Q01DX009 (ip), vehicle: saline with Tween-80
[9] = dose: 200.0 mg/kg/injection, schedule: Q01DX009 (ip), vehicle: saline with Tween-80
[10] = dose: 400.0 mg/kg/injection, schedule: Q01DX009 (ip), vehicle: saline with Tween-80
[11] = dose: 25.0 mg/kg/injection, schedule: Q01DX009 (ip), vehicle: saline with Tween-80
[12] = dose: 6.25 mg/kg/injection, schedule: Q01DX009 (ip), vehicle: Klucel (hydroxypropylcellulose) (HPC)
[13] = dose: 12.5 mg/kg/injection, schedule: Q01DX009 (ip), vehicle: Klucel (hydroxypropylcellulose) (HPC)
[14] = dose: 12.5 mg/kg/injection, schedule: Q01DX005 (ip), vehicle: Klucel (hydroxypropylcellulose) (HPC)
[15] = dose: 50.0 mg/kg/injection, schedule: Q01DX005 (ip), vehicle: Klucel (hydroxypropylcellulose) (HPC)
[16] = dose: 100.0 mg/kg/injection, schedule: Q01DX005 (ip), vehicle: Klucel (hydroxypropylcellulose) (HPC)
[17] = dose: 200.0 mg/kg/injection, schedule: Q01DX005 (ip), vehicle: Klucel (hydroxypropylcellulose) (HPC)
[18] = dose: 25.0 mg/kg/injection, schedule: Q01DX005 (ip), vehicle: Klucel (hydroxypropylcellulose) (HPC)

With `C=C1CC2(CC(C)CCC2C(=C)C)OC1=O` (configuration not stated) the T/C (dose: 100.0 mg/kg/injection, schedule: Q01DX001 (ip), vehicle: saline) was 101 % of control, the T/C (dose: 200.0 mg/kg/injection, schedule: Q01DX001 (ip), vehicle: saline) was 102 % of control and the T/C (dose: 400.0 mg/kg/injection, schedule: Q01DX001 (ip), vehicle: saline) was 99 % of control.

In the case of `O=C(O)c1nnc(C(=O)O)nn1`, the T/C (dose: 6.25 mg/kg/injection, schedule: Q01DX009 (ip), vehicle: water) is reported as 98 % of control, the T/C (dose: 12.5 mg/kg/injection, schedule: Q01DX009 (ip), vehicle: water) is reported as 103 % of control and the T/C (dose: 25.0 mg/kg/injection, schedule: Q01DX009 (ip), vehicle: water) is reported as 102 % of control. The T/C (dose: 50.0 mg/kg/injection, schedule: Q01DX009 (ip), vehicle: water) was 100 % of control and the T/C (dose: 100.0 mg/kg/injection, schedule: Q01DX009 (ip), vehicle: water) was 90 % of control.

In the case of `CCCCCCCCCCCCCCCCCCOC(=O)CCN`, the T/C [1] is reported as 101 % of control, the T/C [2] is reported as 109 % of control and the T/C [3] is reported as 113 % of control.

`CCN(CC)CCOC(=O)c1cc2cc3cc(C(=O)OCCN(CC)CC)c(=O)oc3c(C)c2oc1=O` was tested, and the T/C [4] was 113 % of control, the T/C [5] was 114 % of control and the T/C [6] was 107 % of control.

`COc1cc(NCC(C)(O)CN2CCCC(C)C2C)c2ncccc2c1` (configuration not stated) was tested, and the T/C (dose: 12.5 mg/kg/injection, schedule: Q01DX005 (ip), vehicle: saline) was 97 % of control, the T/C (dose: 25.0 mg/kg/injection, schedule: Q01DX005 (ip), vehicle: saline) was 101 % of control and the T/C [4] was 112 % of control.

In the case of `COC(=O)C1C(COS(C)(=O)=O)ON2CCC(OC)(OC)C12` (configuration not stated), the T/C [4] is reported as 95 % of control, the T/C [5] is reported as 98 % of control and the T/C [6] is reported as 95 % of control.

In the case of `O=C(Nc1cccc(Cl)c1)ON1C(=O)C2C(C1=O)C1(Cl)C(Cl)C(Cl)C2(Cl)C1(Cl)Cl` (configuration not stated), the T/C [7] is reported as 103 % of control and 110 % of control, the T/C [8] is reported as 110 % of control and 112 % of control and 120 % of control and the T/C [9] is reported as 106 % of control and 124 % of control. The T/C [10] was 108 % of control and 110 % of control.

With `CN1/C(=C/C=C/C(I)=C/C=C/C2=[N+](C)c3ccccc3C2(C)C)C(C)(C)c2ccccc21` the T/C (dose: 3.13 mg/kg/injection, schedule: Q01DX009 (ip), vehicle: saline with Tween-80) was 121 % of control, the T/C (dose: 6.25 mg/kg/injection, schedule: Q01DX009 (ip), vehicle: saline with Tween-80) was 123 % of control and the T/C (dose: 12.5 mg/kg/injection, schedule: Q01DX009 (ip), vehicle: saline with Tween-80) was 120 % of control. For the same compound, the T/C [11] was 124 % of control.

With `CC(/C=C/C1(C)C(C)CCC(=O)C1C)=C\Cc1c(O)c(Cl)c(C)c(C=O)c1O` (configuration not stated) the T/C (dose: 3.12 mg/kg/injection, schedule: Q01DX009 (ip), vehicle: Klucel (hydroxypropylcellulose) (HPC)) was 101 % of control and 103 % of control, the T/C [12] was 103 % of control and 106 % of control and the T/C [13] was 106 % of control and 113 % of control.

For `Brc1cc2c(cc1C=NC1CCCCC1)OCO2`, the T/C (dose: 100.0 mg/kg/injection, schedule: Q01DX001 (ip), vehicle: Klucel (hydroxypropylcellulose) (HPC)) was 99 % of control, the T/C (dose: 200.0 mg/kg/injection, schedule: Q01DX001 (ip), vehicle: Klucel (hydroxypropylcellulose) (HPC)) was 101 % of control and the T/C (dose: 400.0 mg/kg/injection, schedule: Q01DX001 (ip), vehicle: Klucel (hydroxypropylcellulose) (HPC)) was 101 % of control.

With `S=C(Nc1ccc(Br)cc1)SCc1ccc2c(c1)OCO2` the T/C (dose: 50.0 mg/kg/injection, schedule: Q01DX009 (ip), vehicle: suspension in saline) was 109 % of control, the T/C (dose: 100.0 mg/kg/injection, schedule: Q01DX009 (ip), vehicle: suspension in saline) was 119 % of control and the T/C (dose: 200.0 mg/kg/injection, schedule: Q01DX009 (ip), vehicle: suspension in saline) was 93 % of control.

`C=C(Br)C(=NC(C)(C)C)Nc1ccc(Cl)cc1` was tested, and the T/C (dose: 6.25 mg/kg/injection, schedule: Q01DX005 (ip), vehicle: Klucel (hydroxypropylcellulose) (HPC)) was 107 % of control, the T/C [14] was 114 % of control and the T/C [15] was 98 % of control. The T/C [16] was 103 % of control and the T/C [17] was 102 % of control.

In the case of `CC(C)C(C(F)C(=O)OCc1ccccc1)N(Cc1ccccc1)Cc1ccccc1` (configuration not stated), the T/C [15] is reported as 98 % of control, the T/C [16] is reported as 91 % of control and the T/C [17] is reported as 89 % of control.

`O=c1[nH]c(=O)n2ncnc2[nH]1` was tested, and the T/C [11] was 91 % of control, the T/C [1] was 95 % of control and the T/C [7] was 95 % of control. For the same compound, the T/C [2] was 95 % of control, the T/C [8] was 99 % of control and the T/C [3] was 105 % of control. The T/C [9] was 91 % of control.

`Cc1cc2ncn(CC(=O)O)c2cc1C` was tested, and the T/C (dose: 50.0 mg/kg/injection, schedule: Q04DX003 (ip), vehicle: saline with Tween-80) was 100 % of control and the T/C (dose: 100.0 mg/kg/injection, schedule: Q04DX003 (ip), vehicle: saline with Tween-80) was 90 % of control.

In the case of `Oc1ccccc1N=Nc1ccccc1O.[O]=[V]`, the T/C (dose: 3.13 mg/kg/injection, schedule: Q01DX009 (ip), vehicle: Klucel (hydroxypropylcellulose) (HPC)) is reported as 99 % of control, the T/C [12] is reported as 107 % of control and 112 % of control and the T/C [13] is reported as 100 % of control and 106 % of control. For the same compound, the T/C (dose: 25.0 mg/kg/injection, schedule: Q01DX009 (ip), vehicle: Klucel (hydroxypropylcellulose) (HPC)) was 90 % of control.

For `C[n+]1c(-c2cccc3ccccc23)c2cc([N+](=O)[O-])ccc2c2ccccc21`, the T/C (dose: 4.0 mg/kg/injection, schedule: Q01DX009 (ip), vehicle: Klucel (hydroxypropylcellulose) (HPC)) was 114 % of control, the T/C (dose: 8.0 mg/kg/injection, schedule: Q01DX009 (ip), vehicle: Klucel (hydroxypropylcellulose) (HPC)) was 115 % of control and the T/C (dose: 8.0 mg/kg/injection, schedule: Q04DX003 (ip), vehicle: Klucel (hydroxypropylcellulose) (HPC)) was 98 % of control. For the same compound, the T/C (dose: 16.0 mg/kg/injection, schedule: Q01DX009 (ip), vehicle: Klucel (hydroxypropylcellulose) (HPC)) was 119 % of control, the T/C (dose: 16.0 mg/kg/injection, schedule: Q04DX003 (ip), vehicle: Klucel (hydroxypropylcellulose) (HPC)) was 108 % of control and the T/C (dose: 32.0 mg/kg/injection, schedule: Q01DX009 (ip), vehicle: Klucel (hydroxypropylcellulose) (HPC)) was 114 % of control. The T/C (dose: 32.0 mg/kg/injection, schedule: Q04DX003 (ip), vehicle: Klucel (hydroxypropylcellulose) (HPC)) was 114 % of control and the T/C (dose: 64.0 mg/kg/injection, schedule: Q04DX003 (ip), vehicle: Klucel (hydroxypropylcellulose) (HPC)) was 106 % of control.

With `Nc1cc(Cl)nc(N)n1` the T/C [11] was 96 % of control, the T/C [7] was 97 % of control and the T/C [8] was 101 % of control. The T/C [9] was 105 % of control and the T/C [10] was 100 % of control.

For `C=CC(=O)NCCCCCC(=O)O`, the T/C (dose: 50.0 mg/kg/injection, schedule: Q01DX009 (ip), vehicle: saline) was 103 % of control, the T/C (dose: 100.0 mg/kg/injection, schedule: Q01DX009 (ip), vehicle: saline) was 98 % of control and the T/C (dose: 200.0 mg/kg/injection, schedule: Q01DX009 (ip), vehicle: saline) was 103 % of control.

`CN1c2ccccc2N=Cc2c1oc1ccc3ccccc3c1c2=O` was tested, and the T/C [14] was 96 % of control, the T/C [18] was 103 % of control and the T/C [15] was 92 % of control.

With `COC1=CC(=O)c2ncccc2C1=O` the T/C (dose: 1.56 mg/kg/injection, schedule: Q01DX009 (ip), vehicle: DMSO) was 101 % of control, the T/C (dose: 3.13 mg/kg/injection, schedule: Q01DX009 (ip), vehicle: DMSO) was 100 % of control and the T/C (dose: 6.25 mg/kg/injection, schedule: Q01DX009 (ip), vehicle: DMSO) was 100 % of control. The T/C (dose: 12.5 mg/kg/injection, schedule: Q01DX009 (ip), vehicle: DMSO) was 111 % of control and 96 % of control and the T/C (dose: 25.0 mg/kg/injection, schedule: Q01DX009 (ip), vehicle: DMSO) was 101 % of control and 113 % of control.

`CCN(CC)CCOC(=O)Cc1cccc2c(=O)cc(-c3cccs3)oc12` was tested, and the T/C [18] was 106 % of control, the T/C [15] was 104 % of control and 117 % of control and the T/C [16] was 109 % of control. The T/C [17] was 161 % of control.

With `CCOc1ccc(C(C)c2cc3c(cc2OC)OCO3)c(C)c1` (configuration not stated) the T/C [15] was 103 % of control, the T/C [16] was 106 % of control and the T/C [17] was 106 % of control.

With `O=C(CCC(=O)Nc1ccc2[nH]c3ccccc3c(=O)c2c1)Nc1ccc2[nH]c3ccccc3c(=O)c2c1` the T/C (dose: 60.0 mg/kg/injection, schedule: Q01DX005 (ip), vehicle: Klucel (hydroxypropylcellulose) (HPC)) was 99 % of control, the T/C (dose: 120.0 mg/kg/injection, schedule: Q01DX005 (ip), vehicle: Klucel (hydroxypropylcellulose) (HPC)) was 96 % of control and the T/C (dose: 240.0 mg/kg/injection, schedule: Q01DX005 (ip), vehicle: Klucel (hydroxypropylcellulose) (HPC)) was 97 % of control.
